Data from patent US12240853B2, “Compounds useful in HIV therapy” (GlaxoSmithKline Intellectual Property (No.2) Limited, priority 2019, dated 2025).

Columns and labels:
[1] = test system: HIV pseudotyped virus, M184V; format: cell-based; details: U373 cells (CD4, CXCR4 or CCR5), luciferase signal after 3 days
[2] = test system: HIV pseudotyped virus (NL4-3 provirus, luciferase reporter), WT; assay: PSV (pseudotyped virus) assay, WT; details: Human immunodeficiency virus 1, NL43, 72 h, read-out: WT IC50
Description: A pseudotyped virus assay (PSV) was used to assess the potency of the HIV inhibitor.
The PSV assay was performed by using U373 cells stably transformed to express human CD4, the primary receptor for HIV entry and either human CXCR4 or human CCR5 which are the co-receptors required for HIV entry as target cells for infection. […] This dose-range was applied to U373 cells and the pre-made pseudotyped virus added. The amount of luciferase signal produced after 3 days of culture was used to reflect the level of pseudotyped virus infection. An IC50, or the concentration of inhibitor required to reduce PSV infection by 50% from the infection containing no inhibitor was calculated. […] IC50 values were determined from a 10 point dose response curve using 3-4-fold serial dilution for each compound, which spans a concentration range>1000 fold.
These values are plotted against the molar compound concentrations using the standard four parameter logistic equation: y=((Vmax*x^n)/(K^n+x^n))+Y2

Row | SMILES | IC50 [1] | IC50 [2]
1 | C#C[C@]1(COC(=O)C2CCCCC2)O[C@@H](n2cnc3c(N)nc(F)nc32)C[C@@H]1O [Example 1, ((2R,3S,5R)-5-(6-amino-2-fluoro-9H-purin-9-yl)-2-ethynyl-3-hydroxytetrahydrofuran-2-yl)methyl Cyclohexanecarboxylate] | 8 nM | 2 nM
2 | C#C[C@]1(COC(=O)c2ccccc2)O[C@@H](n2cnc3c(N)nc(F)nc32)C[C@@H]1O [Example 2, ((2R,3S,5R)-5-(6-amino-2-fluoro-9H-purin-9-yl)-2-ethynyl-3-hydroxytetrahydrofuran-2-yl)methyl Benzoate] | 13 nM | 3 nM
3 | C#C[C@]1(COC(=O)Cc2ccccc2)O[C@@H](n2cnc3c(N)nc(F)nc32)C[C@@H]1O [Example 3, [(2R,3S,5R)-5-(6-amino-2-fluoro-9H-purin-9-yl)-2-ethynyl-3-hydroxyoxolan-2-yl]methyl 2-phenylacetate] | 10 nM | 2 nM
4 | C#C[C@]1(COC(=O)[C@H]2CC[C@H](C(C)(C)C)CC2)O[C@@H](n2cnc3c(N)nc(F)nc32)C[C@@H]1O [Example 4, ((2R,3S,5R)-5-(6-amino-2-fluoro-9H-purin-9-yl)-2-ethynyl-3-hydroxytetrahydrofuran-2-yl)methyl trans-4-(tert-butyl)cyclohexane-1 carboxylate] | 17 nM | 3 nM
5 | C#C[C@]1(COC(=O)[C@H]2CC[C@H](CCCCC)CC2)O[C@@H](n2cnc3c(N)nc(F)nc32)C[C@@H]1O [Example 5, ((2R,3S,5R)-5-(6-amino-2-fluoro-9H-purin-9-yl)-2-ethynyl-3-hydroxytetrahydrofuran-2-yl)methyl trans-4-pentylcyclohexane-1-carboxylate] | 7 nM | 1 nM
6 | C#C[C@]1(COC(=O)COCCOC)O[C@@H](n2cnc3c(N)nc(F)nc32)C[C@@H]1O [Example 6, ((2R,3S,5R)-5-(6-amino-2-fluoro-9H-purin-9-yl)-2-ethynyl-3-hydroxytetrahydrofuran-2-yl)methyl 2-(2-methoxyethoxy)acetate] | 25 nM | 4 nM
7 | C#C[C@]1(COC(=O)COCCOCCOC)O[C@@H](n2cnc3c(N)nc(F)nc32)C[C@@H]1O [Example 7, ((2R,3S,5R)-5-(6-amino-2-fluoro-9H-purin-9-yl)-2-ethynyl-3-hydroxytetrahydrofuran-2-yl)methyl 2-(2-(2-methoxyethoxy)ethoxy)acetate] | 24 nM | 4 nM
8 | C#C[C@]1(COC(=O)COCCOCCCC)O[C@@H](n2cnc3c(N)nc(F)nc32)C[C@@H]1O [Example 8, ((2R,3S,5R)-5-(6-amino-2-fluoro-9H-purin-9-yl)-2-ethynyl-3-hydroxytetrahydrofuran-2-yl)methyl 2-(2-butoxyethoxy)acetate] | 11 nM | 2 nM
9 | C#C[C@]1(COC(=O)CCCCCCCCC(=O)O)O[C@@H](n2cnc3c(N)nc(F)nc32)C[C@@H]1O [Example 9, 10-(((2R,3S,5R)-5-(6-amino-2-fluoro-9H-purin-9-yl)-2-ethynyl-3-hydroxytetrahydrofuran-2-yl)methoxy)-10-oxodecanoic Acid] | 167 nM | 35 nM
10 | C#C[C@]1(COC(=O)CCCCCCCCCCCCC(=O)O)O[C@@H](n2cnc3c(N)nc(F)nc32)C[C@@H]1O [Example 10, 14-(((2R,3S,5R)-5-(6-amino-2-fluoro-9H-purin-9-yl)-2-ethynyl-3-hydroxytetrahydrofuran-2-yl)methoxy)-14-oxotetradecanoic Acid] | 44 nM | 9 nM
11 | C#C[C@]1(COC(=O)CCCCCCCCCCCCCCCCCCC(=O)O)O[C@@H](n2cnc3c(N)nc(F)nc32)C[C@@H]1O [Example 11, 20-(((2R,3S,5R)-5-(6-amino-2-fluoro-9H-purin-9-yl)-2-ethynyl-3-hydroxytetrahydrofuran-2-yl)methoxy)-20-oxoicosanoic Acid] | 37 nM | 8 nM
12 | C#C[C@]1(COC(=O)CCCC(=O)OC(COC(=O)CCCCCC)COC(=O)CCCCCC)O[C@@H](n2cnc3c(N)nc(F)nc32)C[C@@H]1O [Example 12, ((2R,3S,5R)-5-(6-amino-2-fluoro-9H-purin-9-yl)-2-ethynyl-3-hydroxytetrahydrofuran-2-yl)methyl (1,3-bis(heptanoyloxy)propan-2-yl) glutarate] | 151 nM | 34 nM
13 | C#C[C@]1(COC(=O)CCCC(=O)OC(COC(=O)CCCCCCCCCCCCC)COC(=O)CCCCCCCCCCCCC)O[C@@H](n2cnc3c(N)nc(F)nc32)C[C@@H]1O [Example 13, ((2R,3S,5R)-5-(6-amino-2-fluoro-9H-purin-9-yl)-2-ethynyl-3-hydroxytetrahydrofuran-2-yl)methyl 1,3-bis(tetradecanoyloxy)propan-2-yl) glutarate] | 3610 nM | 508 nM
14 | C#C[C@]1(COC(=O)CCCC(=O)OCCCCCCCCCCCCCC)O[C@@H](n2cnc3c(N)nc(F)nc32)C[C@@H]1O [Example 14, ((2R,3S,5R)-5-(6-amino-2-fluoro-9H-purin-9-yl)-2-ethynyl-3-hydroxytetrahydrofuran-2-yl)methyl Tetradecyl Glutarate] | 148 nM | 33 nM
15 | C#C[C@]1(COC(=O)CCCCCCCCC)O[C@@H](n2cnc3c(N)nc(F)nc32)C[C@@H]1OC(=O)OCC [Example 15, ((2R,3S,5R)-5-(6-amino-2-fluoro-9H-purin-9-yl)-3-((ethoxycarbonyl)oxy)-2-ethynyltetrahydrofuran-2-yl)methyl Decanoate] | 328 nM | 77 nM
16 | C#C[C@]1(COC(=O)CCCCCC)O[C@@H](n2cnc3c(N)nc(F)nc32)C[C@@H]1OC(=O)CCCCCC [Example 16, (2R,3S,5R)-5-(6-amino-2-fluoro-9H-purin-9-yl)-2-ethynyl-2-((heptanoyloxy)methyl)tetrahydrofuran-3-yl Heptanoate] | 31 nM | 8 nM
17 | C#C[C@]1(COC(=O)CCCCCCCCCCCCC)O[C@@H](n2cnc3c(N)nc(F)nc32)C[C@@H]1OC(=O)CCCCCCCCCCCCC [Example 17, (2R,3S,5R)-5-(6-amino-2-fluoro-9H-purin-9-yl)-2-ethynyl-2-((tetradecanoyloxy)methyl)tetrahydrofuran-3-yl Tetradecanoate] | 10300 nM | 1740 nM
18 | C#C[C@]1(COC(=O)CCCC)O[C@@H](n2cnc3c(N)nc(F)nc32)C[C@@H]1OC(=O)CCCCCCCCCCCC [Example 19, (2R,3S,5R)-5-(6-amino-2-fluoro-9H-purin-9-yl)-2-ethynyl-2-((pentanoyloxy)methyl)tetrahydrofuran-3-yl Tridecanoate] | 87 nM | 18 nM
19 | C#C[C@]1(COC(=O)CCCC)O[C@@H](n2cnc3c(N)nc(F)nc32)C[C@@H]1OC(=O)CCCCCC [Example 20, (2R,3S,5R)-5-(6-amino-2-fluoro-9H-purin-9-yl)-2-ethynyl-2-((pentanoyloxy)methyl)tetrahydrofuran-3-yl Heptanoate] | 25 nM | 5 nM
20 | C#C[C@]1(COC(=O)CCCC)O[C@@H](n2cnc3c(N)nc(F)nc32)C[C@@H]1OC(=O)CCCCCCCCCC [Example 21, (2R,3S,5R)-5-(6-amino-2-fluoro-9H-purin-9-yl)-2-ethynyl-2-((pentanoyloxy)methyl)tetrahydrofuran-3-yl Undecanoate] | 44 nM | 7 nM
21 | C#C[C@]1(COC(=O)CCCC)O[C@@H](n2cnc3c(N)nc(F)nc32)C[C@@H]1OC(=O)CCCCCCCC [Example 22, (2R,3S,5R)-5-(6-amino-2-fluoro-9H-purin-9-yl)-2-ethynyl-2-((pentanoyloxy)methyl)tetrahydrofuran-3-yl Nonanoate] | 35 nM | 7 nM
22 | C#C[C@]1(COC(=O)CCCC)O[C@@H](n2cnc3c(N)nc(F)nc32)C[C@@H]1OC(=O)CCCC [Example 23, (2R,3S,5R)-5-(6-amino-2-fluoro-9H-purin-9-yl)-2-ethynyl-2-((pentanoyloxy)methyl)tetrahydrofuran-3-yl Pentanoate] | 68 nM | 11 nM
23 | C#C[C@]1(COC(=O)CCCC)O[C@@H](n2cnc3c(N)nc(F)nc32)C[C@@H]1OC(=O)CC [Example 24, ((2R,3S,5R)-5-(6-amino-2-fluoro-9H-purin-9-yl)-2-ethynyl-3-(propionyloxy)tetrahydrofuran-2-yl)methyl Pentanoate] | 351 nM | 66 nM
24 | C#C[C@]1(COC(=O)CCCC)O[C@@H](n2cnc3c(NC(=O)CCC)nc(F)nc32)C[C@@H]1O [Example 25, ((2R,3S,5R)-5-(6-butyramido-2-fluoro-9H-purin-9-yl)-2-ethynyl-3-hydroxytetrahydrofuran-2-yl)methyl Pentanoate] | 186 nM | 21 nM
25 | C#C[C@]1(COC(=O)CCCC)O[C@@H](n2cnc3c(NC(=O)CCCCCCC)nc(F)nc32)C[C@@H]1O [Example 26, ((2R,3S,5R)-2-ethynyl-5-(2-fluoro-6-octanamido-9H-purin-9-yl)-3-hydroxytetrahydrofuran-2-yl)methyl Pentanoate] | 28 nM | 7 nM
26 | C#C[C@]1(COC(=O)CCCC)O[C@@H](n2cnc3c(NC(=O)CCCCCCCCCCCCC)nc(F)nc32)C[C@@H]1O [Example 27, ((2R,3S,5R)-2-ethynyl-5-(2-fluoro-6-tetradecanamido-9H-purin-9-yl)-3-hydroxytetrahydrofuran-2-yl)methyl Pentanoate] | 46 nM | 8 nM
27 | C#C[C@]1(COC(=O)CCCC)O[C@@H](n2cnc3c(NC(=O)CCCCCCCCCCC)nc(F)nc32)C[C@@H]1O [Example 28, ((2R,3S,5R)-5-(6-dodecanamido-2-fluoro-9H-purin-9-yl)-2-ethynyl-3-hydroxytetrahydrofuran-2-yl)methyl Pentanoate] | 26 nM | 6 nM
28 | C#C[C@]1(COC(=O)C(CCC)CCC)O[C@@H](n2cnc3c(N)nc(F)nc32)C[C@@H]1OC(=O)CCCCCCCCCCC [Example 29, (2R,3S,5R)-5-(6-amino-2-fluoro-9H-purin-9-yl)-2-ethynyl-2-(((2-propylpentanoyl)oxy)methyl)tetrahydrofuran-3-yl Dodecanoate] | 1350 nM | 238 nM
